# Data from US20220340566A1, “BENZYL AMINE-CONTAINING 5,6-HETEROAROMATIC COMPOUNDS USEFUL AGAINST MYCOBACTERIAL INFECTION” (priority 2019, published 2022).
# Read-outs that look alike come from different tables or passages of the source.
# Assays:
# [1] = test system: Mycobacterium avium ATCC700898; assay: Determination of IC85 against M. avium (resazurin fluorescence); format: cell-based; details: 37° C., 3 days incubation then resazurin, fluorescence one day later
# [2] = Metabolic stability test in pooled human liver microsomes; format: in vitro ADME; details: human liver microsomes 0.5 mg protein/mL, 1 mmol/L NADPH, 37° C., 30 minutes
# Procedure: Using a commercially available pooled human liver microsomes, a compound of the present invention was reacted for a constant time, a remaining rate was calculated by comparing a reacted sample and an unreacted sample, thereby, a degree of metabolism in liver was assessed.
# A reaction was performed (oxidative reaction) at 37° C. for 0 minute or 30 minutes in the presence of 1 mmol/L NADPH in 0.2 mL of a buffer (50 mmol/L Tris-HCl pH 7.4, 150 mmol/L potassium chloride, 10 mmol/L magnesium chloride) containing 0.5 mg protein/mL of human liver microsomes. After the reaction, 50 μL of the reaction solution was added to 100 μL of a methanol/acetonitrile=1/1 (v/v), mixed and centrifuged at 3000 rpm for 15 minutes. The compound of the present invention in the supernatant was quantified by LC/MS/MS or solid phase extraction (SPE)/MS, and a remaining amount of the compound of the present invention after the reaction was calculated, letting a compound amount at 0 minute reaction time to be 100%.
# [3] = Mycobacterium avium, ATCC700898, M. avium ATCC700898, CAMHB medium, read-out: IC85
# [4] = M. avium ATCC700898, CAMHB medium
Compound,"IC85 [1, 3] [nM]","MS_h_% (remaining amount of compound after reaction, 0 minute = 100%) [2] [%]","IC85 [1, 4] [nM]"
Cc1ccn2c(C(=O)NCc3ccc(C4CCN(c5ccc(OC(F)(F)F)cc5)CC4)c(F)c3)c(C)nc2c1 [Compound I-1-1],17,75,
Cc1ccn2c(C(=O)NCc3ccc(N4CCN(c5ccc(OC(F)(F)F)cc5)[C@@H](C)C4)c(F)c3)c(C)nc2c1 [Compound I-1-2],21,86,
CCc1nc2ccc(Cl)cn2c1C(=O)NCc1ccc(N2CCN(c3ccc(OC(F)(F)F)cc3)[C@@H](C)C2)c(F)c1 [Compound I-1-3],3,66,
Cc1ccn2c(C(=O)NCc3ccc(C4CCN(c5ccc(OC(C)C)cc5)CC4)c(F)c3)c(C)nc2c1 [Compound I-1-4],100,88,
Cc1ccn2c(C(=O)NCc3ccc(C4CCN(c5ccc(OCCF)cc5)CC4)c(F)c3)c(C)nc2c1 [Compound I-1-5],48,70,
Cc1ccn2c(C(=O)NCc3ccc(C4CCN(c5ccc(OC(F)(F)F)cn5)CC4)c(C)c3)c(C)nc2c1 [Compound I-1-7],170,87,
Cc1ccn2c(C(=O)NCc3ccc(C4CCN(c5ccc(OC(F)(F)F)cc5)CC4)cc3F)c(C)nc2c1 [Compound I-1-8],580,86,
Cc1ccn2c(C(=O)NCc3ccc(C4CCN(c5ccc(OC(C)C)cc5)CC4)cc3F)c(C)nc2c1 [Compound I-1-9],940,82,
CCc1nc2ccc(Cl)cn2c1C(=O)NCc1ccc(C2CCN(c3ccc(OC(F)(F)F)cc3)CC2)cc1F [Compound I-1-10],3.1,60,
Cc1ccn2c(C(=O)NCc3ccc(C4CCN(c5ccc(OC(F)(F)F)cn5)CC4)cc3F)c(C)nc2c1 [Compound I-1-11],89,72,
Cc1ccn2c(C(=O)NCc3ccc(N4CCN(c5ccc(OC(F)(F)F)cc5)[C@H](C)C4)c(F)c3)c(C)nc2c1 [Compound I-1-12],70,64,
Cc1cc2nc(C)c(C(=O)NCc3ccc(C4CCN(c5ccc(OC(F)(F)F)cc5)CC4)c(F)c3)n2cc1Cl [Compound I-1-13],57,82,
Cc1nc2cc(C(F)(F)F)ccn2c1C(=O)NCc1ccc(C2CCN(c3ccc(OC(F)(F)F)cc3)CC2)c(F)c1 [Compound I-1-14],760,79,
Cc1ccn2c(C(=O)NCc3ccc(C4CCN(c5ccc(OC(F)(F)F)cc5)CC4)c(F)c3)c(C(F)(F)F)nc2c1 [Compound I-1-15],57,71,
Cc1ccc2nc(C)c(C(=O)NCc3ccc(C4CCN(c5ccc(OC(F)(F)F)cc5)CC4)c(F)c3)n2c1 [Compound I-1-16],1.6,67,
O=C(NCc1ccc(C2CCN(c3ccc(OC(F)(F)F)cc3)CC2)c(F)c1)c1c(C(F)(F)F)nc2ccc(Cl)cn12 [Compound I-1-17],,63,13
Cc1nc2ccc(F)cn2c1C(=O)NCc1ccc(C2CCN(c3ccc(OC(F)(F)F)cc3)CC2)c(F)c1 [Compound I-1-18],11,85,

Compound,"IC85 [1, 3] [nM]","MS_h_% (remaining amount of compound after reaction, 0 minute = 100%) [2] [%]","IC85 [1, 4] [nM]"
Cc1ccn2c(C(=O)NCc3ccc(C4CCN(c5cccc(OC(F)(F)F)c5)CC4)c(F)c3)c(C)nc2c1 [Compound I-1-19],130,87,
CCc1nc2ccc(Cl)cn2c1C(=O)NCc1ccc(C2CCN(c3ccc(OC(F)(F)F)cc3)CC2)c(F)c1 [Compound I-1-20],33,83,
Cc1ccn2c(C(=O)NCc3ccc(C4CCN(c5ccc(OCC(F)(F)F)cc5)CC4)c(F)c3)c(C)nc2c1 [Compound I-1-21],38,89,
Cc1ccn2c(C(=O)NCc3ccc(C4CCN(c5ccc(OC(F)(F)F)cc5F)CC4)c(F)c3)c(C)nc2c1 [Compound I-1-22],28,87,
Cc1ccn2c(C(=O)NCc3ccc(N4CCN(c5ccc(OC(F)(F)F)cc5)[C@@H](C)C4)c(F)c3)c(C(F)(F)F)nc2c1 [Compound I-1-23],45,85,
C[C@H]1CN(c2ccc(CNC(=O)c3c(C(F)(F)F)nc4ccc(Cl)cn34)cc2F)CCN1c1ccc(OC(F)(F)F)cc1 [Compound I-1-24],,62,32
Cc1ccc2nc(C)c(C(=O)NCc3ccc(N4CCN(c5ccc(OC(F)(F)F)cc5)[C@@H](C)C4)c(F)c3)n2c1 [Compound I-1-25],2.2,72,
Cc1nc2ccc(F)cn2c1C(=O)NCc1ccc(N2CCN(c3ccc(OC(F)(F)F)cc3)[C@@H](C)C2)c(F)c1 [Compound I-1-26],15,93,
Cc1cc2nc(C)c(C(=O)NCc3ccc(N4CCN(c5ccc(OC(F)(F)F)cc5)[C@@H](C)C4)c(F)c3)n2cc1Cl [Compound I-1-27],33,80,
CCc1nc2ccc(Cl)cn2c1C(=O)NCc1ccc(N2CCN(c3ccc(OC(C)C)cc3)C(C)(C)C2)c(F)c1 [Compound I-1-28],12,94,
C[C@H]1CN(c2ccc(CNC(=O)c3c(C(F)(F)F)nc4ccc(Cl)cn34)cc2F)CCN1c1ccc(OC(F)(F)F)cc1 [Compound I-1-29],,89,2.7
O=C(NCc1ccc(C2CCN(c3ccc(OC(F)(F)F)cc3)CC2)c(F)c1)c1c(C(F)(F)F)nc2ccc(Cl)cn12 [Compound I-1-30],,89,3.1
Cc1ccn2c(C(=O)NCc3ccc(N4CCN(c5ccc(OC(F)(F)F)cc5)C(C)(C)C4)c(F)c3)c(C)nc2c1 [Compound I-1-31],140,82,
CCc1nc2ccc(Cl)cn2c1C(=O)NCc1ccc(N2CCN(c3ccc(OC(F)(F)F)cc3)C(C)(C)C2)c(F)c1 [Compound I-1-32],9.1,62,
Cc1nc2ccc(F)cn2c1C(=O)NCc1ccc(N2CCN(c3ccc(OC(F)(F)F)cc3)C(C)(C)C2)c(F)c1 [Compound I-1-33],68,85,
CCc1nc2ccc(F)cn2c1C(=O)NCc1ccc(N2CCN(c3ccc(OC(F)(F)F)cc3)[C@@H](C)C2)c(F)c1 [Compound I-1-34],8,65,
CCc1nc2cc(Cl)ccn2c1C(=O)NCc1ccc(N2CCN(c3ccc(OC(F)(F)F)cc3)[C@@H](C)C2)c(F)c1 [Compound I-1-35],26,91,
